Literature values as cited in patent US10898503B2, “Cleavable drug conjugates, compositions thereof and methods of use” (priority 2013, dated 2021).
Where two headings read alike, the source gives them in different places.

Key:
[1] = patients
[2] = in vivo

COc1cccc2c1C(=O)c1c(O)c3c(c(O)c1C2=O)C[C@@](O)(C(=O)CO)C[C@@H]3O[C@H]1C[C@H](N)[C@H](O)[C@H](C)O1 [Doxorubicin]
chance of developing cardiomyopathy ([1]; cumulative dose of 300 mg/m^2): 1-2%
chance of developing cardiomyopathy ([1]; cumulative dose of 400 mg/m^2): 3-5%
chance of developing cardiomyopathy ([1]; cumulative dose of 450 mg/m^2): 5 to 8%
chance of developing cardiomyopathy ([1]; cumulative dose of 500 mg/m^2): 6-20%

enfuvirtide
half-life [2]: four
